Results taken from patent US9278981B2, “Compounds and compositions for inhibiting the activity of ABL1, ABL2 and BCR-ABL1” (Novartis AG, priority 2012, dated 2016).

Molecular target: ABL1 (64-515) (Homo sapiens (Human), UniProt P00519)
Test: Radio ABL1 (64-515) assay (radiometric filter-binding)
Assay type: biochemical

ABL1 (64-515), sequence (P00519 64-515): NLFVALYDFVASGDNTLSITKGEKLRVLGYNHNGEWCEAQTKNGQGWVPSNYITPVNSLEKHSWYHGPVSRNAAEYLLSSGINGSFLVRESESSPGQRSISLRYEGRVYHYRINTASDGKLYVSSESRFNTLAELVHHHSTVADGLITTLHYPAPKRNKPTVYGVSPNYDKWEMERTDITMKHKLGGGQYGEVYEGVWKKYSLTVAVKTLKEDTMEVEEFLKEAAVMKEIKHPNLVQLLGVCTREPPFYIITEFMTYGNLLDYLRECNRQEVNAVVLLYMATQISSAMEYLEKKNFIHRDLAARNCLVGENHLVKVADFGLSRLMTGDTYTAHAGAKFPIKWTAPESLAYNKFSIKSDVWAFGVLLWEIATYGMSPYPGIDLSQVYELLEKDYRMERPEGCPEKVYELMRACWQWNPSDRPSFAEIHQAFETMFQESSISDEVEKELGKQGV

| SMILES | IC50 |
| --- | --- |
| COc1ncc(-c2cc(C(=O)Nc3ccc(OC(F)(F)F)cc3)cnc2N2CC[C@@H](O)C2)cn1 [Example 37, (R)-6-(3-Hydroxypyrrolidin-1-yl)-5-(2-methoxypyrimidin-5-yl)-N-(4-(trifluoromethoxy)phenyl)nicotinamide] | 3 nM |
| Cc1cncc(-c2cc(C(=O)Nc3ccc(OC(F)(F)F)cc3)cnc2N2CC[C@@H](O)C2)c1 [Example 44, (R)-2-(3-Hydroxypyrrolidin-1-yl)-5′-methyl-N-(4-(trifluoromethoxy)phenyl)-[3,3′-bipyridine]-5-carboxamide] | < 3 nM |
| COc1cncc(-c2cc(C(=O)Nc3ccc(OC(F)(F)F)cc3)cnc2N2CC[C@@H](O)C2)c1 [Example 55, (R)-2-(3-hydroxypyrrolidin-1-yl)-5′-methoxy-N-(4-(trifluoromethoxy)phenyl)-[3,3′-bipyridine]-5-carboxamide] | 3 nM |
| COc1ccc(-c2cc(C(=O)Nc3ccc(OC(F)(F)F)cc3)cnc2N2CC[C@@H](O)C2)cn1 [Example 56, (R)-2-(3-hydroxypyrrolidin-1-yl)-6′-methoxy-N-(4-(trifluoromethoxy)phenyl)-[3,3′-bipyridine]-5-carboxamide] | 4 nM |
| O=C(Nc1ccc(OC(F)(F)F)cc1)c1cnc(N2CC[C@@H](O)C2)c(-c2cccc(CO)c2)c1 [Example 59, (R)-5-(3-(Hydroxymethyl)phenyl)-6-(3-hydroxypyrrolidin-1-yl)-N-(4-(trifluoromethoxy)phenyl)nicotinamide] | 6 nM |
| O=C(Nc1ccc(OC(F)(F)F)cc1)c1cnc(N2CC[C@@H](O)C2)c(-c2ccc3ccncc3c2)c1 [Example 63, (R)-6-(3-Hydroxypyrrolidin-1-yl)-5-(isoquinolin-7-yl)-N-(4-(trifluoromethoxy)phenyl)nicotinamide] | 4 nM |
| O=C(Nc1ccc(OC(F)(F)F)cc1)c1cnc(N2CC[C@@H](O)C2)c(-c2ccc3nccnc3c2)c1 [Example 64, (R)-6-(3-Hydroxypyrrolidin-1-yl)-5-(quinoxalin-6-yl)-N-(4-(trifluoromethoxy)phenyl)nicotinamide] | < 3 nM |
| O=C(Nc1ccc(OC(F)(F)F)cc1)c1cnc(N2CCCC2)c(-c2cncnc2)c1 [Example 67, 5-(Pyrimidin-5-yl)-6-(pyrrolidin-1-yl)-N-(4-(trifluoromethoxy)phenyl)nicotinamide] | < 3 nM |
| O=C(Nc1ccc(OC(F)(F)F)cc1)c1cnc(N2CC[C@@H](CO)C2)c(-c2cccnc2)c1 [Example 76, (R)-2-(3-(Hydroxymethyl)pyrrolidin-1-yl)-N-(4-(trifluoromethoxy)phenyl)-[3,3′-bipyridine]-5-carboxamide] | < 3 nM |
| N#Cc1ncc(-c2cc(C(=O)Nc3ccc(OC(F)(F)F)cc3)cnc2N2CC[C@H](CO)C2)cn1 [Example 80, (S)-5-(2-Cyanopyrimidin-5-yl)-6-(3-(hydroxymethyl)pyrrolidin-1-yl)-N-(4-(trifluoromethoxy)phenyl)nicotinamide] | 5 nM |
| O=C(Nc1ccc(OC(F)(F)F)cc1)c1cnc(N2CC[C@H](CO)C2)c(-c2cccnc2)c1 [Example 81, (S)-2-(3-(Hydroxymethyl)pyrrolidin-1-yl)-N-(4-(trifluoromethoxy)phenyl)-[3,3′-bipyridine]-5-carboxamide] | < 3 nM |
| CCc1ccc(-c2cc(C(=O)Nc3ccc(OC(F)(F)F)cc3)cnc2N2CC[C@H](CO)C2)cn1 [Example 83, (S)-6′-Ethyl-2-(3-(hydroxymethyl)pyrrolidin-1-yl)-N-(4-(trifluoromethoxy)phenyl)-[3,3′-bipyridine]-5-carboxamide] | 11 nM |
| O=C(Nc1ccc(OC(F)(F)F)cc1)c1cnc(N2CC[C@H](CO)C2)c(-c2ccc(C3CC3)nc2)c1 [Example 85, (S)-6′-Cyclopropyl-2-(3-(hydroxymethyl)pyrrolidin-1-yl)-N-(4-(trifluoromethoxy)phenyl)-[3,3′-bipyridine]-5-carboxamide] | 26 nM |
